Laboratory results taken from US20260325538A1, “THERAPY” (priority 2023, published 2026).

Tests used:
[1] = tested on: certain strains of Pseudomonas aeruginosa; conditions: in combination with meropenem; cited from earlier work
[2] = tested on: Klebsiella pneumoniae Kpn St147 (NDM-1 and KPC-2); experiment: MIC determination of ceftazidime with zinc chelator and avibactam (checkerboard, broth microdilution); assay type: cell-based; conditions: with CAZ and avibactam
Excerpt: (§1) The fractional inhibitory concentration (FIC) is defined as the concentration that kills when used in combination with another agent divided by the concentration that has the same effect when used alone. The FIC index (FICI) for the combination of two agents is the sum of their individual FIC values. […] The European Committee for Antimicrobial Susceptibility Testing (EUCAST) of the European Society of Clinical Microbiology and Infectious Diseases (ESCMID) 2000 adopts the following definitions to determine the susceptibility of bacteria to an antimicrobial agent (see EUCAST Definitive Document E. Def 1.2: Terminology relating to methods for the determination of susceptibility of bacteria to antimicrobial agents. Clin. Microbiol. Infect. 2000; 6(9): 503-508): • FICI value≤0.5; synergy • 0.5<FICI value≤1; additive effect • 1<FICI value≤2; indifferent effect • FICI≥2; antagonistic effect
(§2) Antimicrobial susceptibility testing (AST) by broth microdilution was performed according to The European Committee on Antimicrobial Susceptibility Testing. Reading guide for broth microdilution. Version 4.0, 2022 (see: http://www.eucast.org).
Checkerboard 96-well plates (Corning 3788) were made by conducting serial two-fold dilutions of CAZ in cation-adjusted Mueller Hinton II broth (caMHB; Thermo Scientific, T3462), in columns across the microtiter plate (64-0.03 μg/ml). Additionally, avibactam was added to rows 3 to 8 in concentrations of 64, 16, 8, 4, 1 and 0.25 μg/ml, respectively. The zinc chelator was added to the wells of the plate, where applicable. […] The first row in all plates was used as a positive control for CAZ only, and the second row included the zinc chelator in addition to CAZ (no avibactam added to rows 1 or 2). The zinc chelator was added at the indicated concentration to rows 3-8 of plates 2 and 3.
(§3) The effect of the combination of zinc chelator/CAZ/avibactam was tested on a clinically isolated Klebsiella pneumoniae Kpn St147 actively constitutionally expressing the two resistance mechanisms NDM-1 and KPC-2 simultaneously. As a negative control, bacteria+CAZ was tested alone. As a positive control, bacteria+CAZ+zinc chelator was used. In Tables 3 and 4, concentrations (μg/ml) of CAZ are given in the top row left to right and avibactam concentrations (μg/ml) are given top to bottom in column 1.
(§4) ΣFICI=MICA(combination)/MICA (alone)+MICB(combination)/MICB (alone)+MICC(combination)/MICC (alone)

[3] = tested on: Klebsiella pneumoniae Kpn St147 (NDM-1 and KPC-2); experiment: MIC determination of cefepime with zinc chelator and avibactam (checkerboard, broth microdilution); assay type: cell-based
Protocol: as §2
Checkerboard 96-well plates (Corning 3788) were made by conducting serial two-fold dilutions of cefepime in cation-adjusted Mueller Hinton II broth (caMHB; Thermo Scientific, T3462), in columns across the microtiter plate (64-0.03 μg/ml). Additionally, avibactam was added to rows 3 to 8 in concentrations of 64, 16, 8, 4, 1 and 0.25 μg/ml, respectively. The zinc chelator was added to the wells of the plate, where applicable. Three plates were made per experiment, one without the zinc chelator (plate 1), one with 16 μg/ml of the zinc chelator (plate 2) and one with 32 μg/ml of the zinc chelator (plate 3). The first row in all plates was used as a positive control for cefepime only, and the second row included the zinc chelator in addition to cefepime (no avibactam added to rows 1 or 2). The zinc chelator was added at the indicated concentration, to rows 3-8 of plates 2 and 3.
as §3, with “chelator/FEP/avibactam” for “chelator/CAZ/avibactam”, “bacteria+FEP” for “bacteria+CAZ”, “bacteria+FEP+zinc” for “bacteria+CAZ+zinc”, “1” for “3”, “2,” for “4,”, “FEP” for “CAZ”
as §1
To test for synergy, all data were subjected to the following formula in which A=zinc chelator; B=cefepime; and C=avibactam:
as §4

[4] = tested on: many strains of Acinetobacter baumannii; conditions: in combination with meropenem; cited from earlier work

CN(C[C@H](O)[C@@H](O)[C@H](O)[C@H](O)CO)C(=O)c1ccc(CN(Cc2ccccn2)Cc2ccccn2)nc1 [zinc chelator]
effect of combination with meropenem [1]: poor effect | FICI Zinc Chelator ([2]; zinc chelator 8 μg/mL): 0.0039 | FICI Zinc Chelator ([2]; zinc chelator 16 μg/mL): 0.0078 | FICI Zinc Chelator ([3]; zinc chelator 8 μg/mL, with FEP and avibactam): 0.004 | amplification of the inhibitory effect ([3]; zinc chelator at 16 μg/ml, with cefepime and avibactam): about 16 fold | effect of combination with meropenem [4]: poor effect
